# Results as given in PMC9781199, “Rational-Based Discovery of Novel β-Carboline Derivatives as Potential Antimalarials: From In Silico Identification of Novel Targets to Inhibition of Experimental Cerebral Malaria” (Pathogens, 2022).
# Values joined by “and” are separate entries in the source; they are usually repeats but may differ in a detail not shown here. Identical values can stand only once. Like-named read-outs stand apart in the source and are kept apart here.
# How the values were obtained:
# [1] = system: human pulmonary fibroblast cells WI-26VA4; experiment: In vitro cytotoxicity on mammalian cells, MTT assay; assay type: cell-based; conditions: read-out: WI-26-VA4 IC50 ± SD
# Description: In vitro cytotoxicity of the compounds was assessed against human pulmonary fibroblast cells WI-26VA4 (ATCC CCL-95.1, USA), by 3-(4,5-dimethyl-2-thiazolyl)-2, 5-diphenyl-2H-tetrazolium bromide (MTT assay). Cells were cultured in a RPMI-1640 medium supplemented with 10% heat-inactivated fetal bovine serum in a 96-well plate. Compounds were diluted in different concentrations ranging from 100 to 1 μM and incubated with the cells for 48 h in a 5% CO2 atmosphere at 37 °C. The optical density was determined at 540 nm […] (Spectra Max340PC384, Molecular Devices, Sunnyvale, CA, USA). The minimum lethal dose for 50% of the cells (IC50) was determined as previously described.
# [2] = system: Plasmodium falciparum W2 strain (CQ-resistant); experiment: In vitro antiplasmodial activity, SYBR test; assay type: cell-based; conditions: for SI (selectivity index): ratio between cytotoxic (WI-26-VA4) and antiplasmodial (W2) activities
# Description: Continuous culture was maintained as previously described. In vitro antiplasmodial activity of the seven compounds against the P. falciparum culture was evaluated using the SYBR test as previously described. Compounds were diluted to concentrations ranging from 10 to 0.0001 μM. […] The plate was read in a fluorometer (Fluoroskan Ascent, Thermo Laboratories) with excitation at 485 nm and an emission of […]. All experiments were performed in triplicate. The results were expressed as the mean of minimum lethal dose for 50% of the culture (IC50).
# Selectivity index (SI) is the ratio between the cytotoxic and antiplasmodial activities of each compound tested. The values greater than 10 were considered indicative of lack of cytoxicity, whereas the substances with values below 10 were considered toxic.
# [3] = system: Plasmodium berghei ANKA; experiment: Suppressive modified test in the mouse model of experimental cerebral malaria; assay type: in vivo, C57BL/6 mice infected with P. berghei ANKA; conditions: for Parasitemia ± SD, 5th dpi / % Reduction of parasitemia, 5th dpi / % Reduction of parasitemia, 7th dpi / Parasitemia ± SD, 7th dpi: suppressive test, 10 mg/Kg oral for five days from 4 h after infection
# Description: The animals (n = 5/cage) were housed in ALESCO® climate-controlled cabinets with controlled air flow, a temperature of 22 ± 2 °C and light control, respecting the animals’ circadian rhythm (light/dark cycle of 12 h), with standard rodent food and water ad libitum.
# To carry out the proposed experiments, the murine model of ECM was used to assess the antimalarial activity of the compounds. Plasmodium berghei ANKA was kindly provided by Claudio Romero Marinho (Federal University of São Paulo-Brazil), and was used to conduct the infections which were performed by intraperitoneal (i.p.) injection of 10^5 parasitized red blood cells (pRBCs) obtained from infected donor mice, as previously described. Reduced responsiveness to external stimuli, ataxia, paralysis, coma, and/or convulsions were considered clinical signals of ECM [44].
# In the suppressive modified test, mice were treated daily by oral gavage for five consecutive days, starting four hours after infection.
# Parasitemia was monitored using giemsa-stained blood smears and the inhibition of parasite multiplication (IPM) was calculated by the formula: [(A–B)/A] × 100, where A = parasitemia of the PbA, and B = parasitemia of the group treated with the compounds. The clinical symptoms were evaluated using the rapid murine coma and behavior scale (RMCBS) from day 5 p.i. being maintained until the end of experimentation. The RMCBS consists of 10 parameters (gait, balance, motor performance, body position, limb strength, touch escape, pinna reflex, toe pinch, aggression, and grooming). Each parameter is scored 0 to 2, with 0 being the lowest function and 2 being the highest. Animals with clinical score ≤ 5 were euthanized. The survival rate (SR) was calculated based on the number of alive animals after 14 days of clinical evaluation. […]
# [4] = system: Plasmodium berghei ANKA; experiment: Curative test in the mouse model of experimental cerebral malaria; assay type: in vivo, C57BL/6 mice infected with P. berghei ANKA; conditions: for % Reduction of parasitemia, 5th dpi / Parasitemia ± SD, 5th dpi / % Reduction of parasitemia, 7th dpi / Parasitemia ± SD, 7th dpi: 10 mg/Kg oral, day 3 to 7 p.i.
# [5] = system: peritoneal macrophages of BALB/c mice; experiment: Cytotoxicity on peritoneal macrophages, MTT method; assay type: cell-based; conditions: 18 to 150 μM, 48 h
# Description: Macrophages obtained from the peritoneal cavity of BALB/c mice previously inoculated with 3% thioglycollate medium for the evaluation of cell viability were used. The macrophages were seeded in culture bottles with a RPMI-1640 medium supplemented with 2 mM L-glutamine, 100 µg/mL antibiotics (streptomycin and penicillin), 5% fetal bovine serum (FBS) and kept in an incubator at 5% CO2 atmosphere at 37 °C until the day of the test. The protocol was approved by the Ethical Committee for Animal Research of Federal University of Juiz de Fora (n° 007/2018-CEUA).
# Cytotoxicity was assessed by cell viability using the MTT method. Briefly, the macrophages at 2 × 10^6 cells/well were transferred to 96-well microplates and treated with compound 10 at concentrations of 18 to 150 μM. For the negative control, cells were treated only with 0.06% DMSO (vehicle). The cells were incubated for 48 h at 37 °C and 5% CO2 atmosphere. Absorbance was read at 570 nm and cell viability (%) of macrophages was obtained by the following formula: % viable cells = [(AUSample)/AU0.06% DMSO] × 100, where: AUSample: Absorbance was measured after treatment of cells with the sample; AU0.06% DMSO: Absorbance was measured after treatment of cells with 0.06% DMSO. The experiment was performed in triplicate.
# [6] = system: NO production in murine peritoneal macrophages; experiment: NO production by LPS/IFN-γ stimulated macrophages, Griess method; assay type: cell-based, BALB/c mice; conditions: macrophages stimulated with LPS and IFN-γ, 18 to 150 μM, 48 h, p < 0.05
# Description: NO production was determined in the culture supernatants of macrophages after being incubated for 48 h in the presence of compound 10 ([…]) and stimulated with LPS at 1 μg/mL and IFN-γ at 1 ng/mL. Negative control was stimulated with LPS and IFN-γ and treated with 0.06% DMSO (vehicle). The cells were incubated for 48 h at 37 °C and 5% CO2 atmosphere. Subsequently, NO production was evaluated by the Griess method (an indirect NO measurement by nitrite dosing) in the recovered culture supernatant from the 48 h stimuli and treatment as described by. The quantity of NO (μM) was determined by comparison with a standard sodium nitrite solution. The spectrophotometric measurement was performed at 540 nm and the experiment was performed in triplicate.
# [7] = WI26VA4, human fibroblasts, MTT, 48 h, highest concentration 100 μM
# [8] = Plasmodium falciparum, W2 strain (chloroquine-resistant), SYBR test, triplicate, read-out: P. falciparum IC50 ± SD
# [9] = suppressive treatment regimen, 10 mg/kg oral
Compound,"IC50 [1, 7] [nM]","IC50 [2, 8] [nM]",SI (selectivity index) [2],"Parasitemia ± SD, 5th dpi [3]","% Reduction of parasitemia, 7th dpi [3] [%]","Parasitemia ± SD, 7th dpi [3]","% Reduction of parasitemia, 5th dpi [4] [%]","Parasitemia ± SD, 5th dpi [4]","% Reduction of parasitemia, 7th dpi [4] [%]","Parasitemia ± SD, 7th dpi [4]",Prevention of the development of CM (share of animals) ([4]; 10 mg/kg oral),other results
"COc1cc(C2NCCc3c2[nH]c2ccccc32)cc(OC)c1OC (stereo not drawn) [Compound 9, 1-(3,4,5-Trimethoxyphenyl)-2,3,4,9-tetrahydro-1H-pyrido[3,4-b]indole]",> 100000,1120 ± 14,>89,,,,,,,,,
artemisinin [reference compound],,,,,,,,,,,,"IC50 ([1]; human fibroblasts, MTT, 48 h, highest concentration 100 μM): > 100000 nM; IC50 ([2]; W2 strain (chloroquine-resistant), SYBR test, triplicate, read-out: P. falciparum IC50 ± SD): 95 ± 10 nM"
"COC(=O)[C@@H]1Cc2c([nH]c3ccccc23)[C@@H](c2ccccc2OC)N1 [Compound 4, Methyl (1R,3S)-1-(2-Methoxy)-2,3,4,9-tetrahydro-1H-pyrido[3,4-b]indole-3-carboxylate]",> 100000,1040 ± 21,>96,1.88 ± 2.46,9.78,6.18 ± 4.75,75.16,0.79 ± 0.63,20.00,5.48± 3.64,,"% Reduction of parasitemia, 5th dpi ([3]; 10 mg/kg): 40% and 40.88%; Protection against CM (share of animals) [3, 9]: 60%; Animals alive until the 14th dpi (without CM) ([4]; 10 mg/kg oral): 90%"
"COc1cc(-c2nccc3c2[nH]c2ccccc23)cc(OC)c1OC [Compound 10, 1-(3,4,5-Trimethoxyphenyl)-9H-pyrido[3,4-b]indole]",> 100000,510 ± 11,>196,0.57 ± 0.94,45.69,3.72 ± 3.93,,1.02 ± 0.93,0,8.37 ± 2.26,70%,"Toxicity for peritoneal macrophages (cell viability, MTT) [5]: no toxicity; % Reduction of parasitemia, 5th dpi ([3]; 10 mg/kg): 82% and 82.07%; NO levels (nitrite equivalent) [6]: reduce NO levels at all concentrations tested; % Reduction of parasitemia, 5th dpi ([4]; 10 mg/kg): 67.9% and 67.92%"
"COC(=O)[C@@H]1Cc2c([nH]c3ccccc23)[C@@H](c2ccccc2Cl)N1 [Compound 6, Methyl (1R,3S)-1-(2-Chloro)-2,3,4,9-tetrahydro-1H-pyrido[3,4-b]indole-3-carboxylate]",> 100000,670 ± 19,>149,,,,64.36,1.13 ± 0.48,,,No protective effect,
"CCN(CC)CCCC(C)Nc1ccnc2cc(Cl)ccc12 (stereo not drawn) [CQ, chloroquine, reference compound]",,,,0.24 ± 0.05,96.1,0.21 ± 0.27,,,96.1,0.21 ± 0.27,,"% Reduction of parasitemia, 5th dpi [3]: 96.5%; IC50 ([1]; Homo sapiens, WI26VA4, 48 h): > 100000 nM; IC50 ([2]; Plasmodium falciparum, W2, read-out: P. falciparum IC50 ± SD): 590 ± 15 nM"
"COC(=O)[C@@H]1Cc2c([nH]c3ccccc23)[C@H](c2ccccc2Cl)N1 [Compound 5, Methyl (1S,3S)-1-(2-Chloro)-2,3,4,9-tetrahydro-1H-pyrido[3,4-b]indole-3-carboxylate]",> 100000,1410 ± 18,>71,,,,0.00,5.00 ± 1.59,0,7.20 ± 4.57,No protective effect,
"CCN(CC)c1ccc(C2NCCc3c2[nH]c2ccccc32)c(O)c1 (stereo not drawn) [Compound 8, 5-(Diethylamino)-2-(2,3,4,9-tetrahydro-1H-pyrido[3,4-b]indol-1-yl)phenol]",> 100000,1820 ± 11,>55,,,,,,,,,
"COC(=O)[C@@H]1Cc2c([nH]c3ccccc23)[C@H](c2ccccc2OC)N1 [Compound 3, Methyl (1S,3S)-1-(2-Methoxy)-2,3,4,9-tetrahydro-1H-pyrido[3,4-b]indole-3-carboxylate]",> 100000,710 ± 12,>141,3.56 ± 2.57,0,7.96 ± 3.26,41.19,1.87 ± 1.02,0,7.50 ± 2.49,,"% Reduction of parasitemia, 5th dpi [3]: 0.00%; Inhibition of parasite growth (in words) [3, 9]: not effective"
